Measurements as given in patent publication US7138361B2, “Herbicidal heterocycles” (E. I. du Pont de Nemours and Company, priority 2000, dated 2006).

Legend:
Format in all cases: in vivo
Sunflower [1] = test: Test C preemergence; details: Rate 62 g/ha, scale 0 to 100
[2] = tested on: velvetleaf (Abutilon theophrasti); test: Test C preemergence; details: for Plant response rating (0 to 100), Velvetleaf: Rate 500 g/ha, visual evaluation after 12 to 14 days
How it was run: (§1)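 Each compound was dissolved in a non-phytotoxic solvent system containing a surfactant and sprayed either on freshly planted seeds (preemergence) or on young plants, 2 to 18 cm high (postemergence). Ratings after 12 to 14 greenhouse days ran from 0, no effect, to 100, complete control.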

[3] = tested on: common ragweed (Ambrosia elatior); test: Test C preemergence; details: for Plant response rating (0 to 100), Ragweed, Common: Rate 500 g/ha, visual evaluation after 12 to 14 days
How it was run: as §1

[4] = tested on: johnsongrass (Sorghum halepense); test: Test C preemergence; details: for Plant response rating (0 to 100), Johnsongrass: Rate 500 g/ha, visual evaluation after 12 to 14 days
How it was run: as §1

Nightshade = test: Test C preemergence
[5] = tested on: woolly cupgrass (Eriochloa villosa); test: Test C preemergence; details: for Plant response rating (0 to 100), Cupgrass, Woolly: Rate 500 g/ha, visual evaluation after 12 to 14 days
How it was run: as §1

[6] = tested on: pigweed (Amaranthus retroflexus); test: Test C preemergence; details: for Plant response rating (0 to 100), Pigweed: Rate 500 g/ha, visual evaluation after 12 to 14 days
How it was run: as §1

[7] = tested on: bermudagrass (Cynodon dactylon); test: Test C preemergence; details: for Plant response rating (0 to 100 where 0 is no effect and 100 is complete control), Bermudagrass: Rate 500 g/ha, visual evaluation after 12 to 14 days
How it was run: as §1

[8] = tested on: goosegrass (Eleusine indica); test: Test C preemergence; details: for Plant response rating (0 to 100), Goosegrass: Rate 500 g/ha, visual evaluation after 12 to 14 days
How it was run: as §1

[9] = tested on: yellow nutsedge (Cyperus esculentus); test: Test C preemergence; details: for Plant response rating (0 to 100), Nutsedge: Rate 500 g/ha, visual evaluation after 12 to 14 days
How it was run: as §1

soybean (Glycine max) = test: Test C preemergence; details: for Plant response rating (0 to 100), Soybean: Rate 500 g/ha, visual evaluation after 12 to 14 days
How it was run: as §1

[10] = tested on: cocklebur (Xanthium strumarium); test: Test C preemergence
How it was run: as §1

[11] = tested on: giant foxtail (Setaria faberii); test: Test C preemergence; details: for Plant response rating (0 to 100), Foxtail, Giant: Rate 500 g/ha, visual evaluation after 12 to 14 days
How it was run: as §1

[12] = tested on: crabgrass (Digitaria sanguinalis); test: Test C preemergence; details: for Plant response rating (0 to 100), Crabgrass: Rate 500 g/ha, visual evaluation after 12 to 14 days
How it was run: as §1

Sunflower [13] = test: Test C preemergence; details: Rate 125 g/ha; scale 0 to 100, 0 no effect, 100 complete control
[14] = tested on: lambsquarters (Chenopodium album); test: Test C preemergence; details: for Plant response rating (0 to 100), Lambsquarters: Rate 500 g/ha, visual evaluation after 12 to 14 days
How it was run: as §1

[15] = tested on: velvetleaf (Abutilon theophrasti); test: Test B postemergence
How it was run: (§2)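 Visual injury scores, 0 = no effect to 100 = complete control, assigned against controls after 13 to 15 days in the greenhouse. Compounds formulated in non-phytotoxic solvent plus surfactant and applied to soil after planting (pre) or onto foliage of 1- to 4-leaf plants (post).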

[16] = tested on: wheat (Triticum aestivum); test: Test B postemergence
How it was run: as §2

[17] = tested on: giant foxtail (Setaria faberii); test: Test B postemergence
How it was run: as §2

corn (Zea mays) = test: Test B postemergence
How it was run: as §2

[18] = Rate 125 g/ha, scale 0 to 100, 0 no effect, 100 complete control
[19] = preemergence, Rate 62 g/ha, scale 0 to 100
[20] = preemergence, Rate 250 g/ha, scale 0 to 100, 0 no effect, 100 complete control
[21] = Rate 250 g/ha, scale 0 to 100, 0 no effect, 100 complete control
[22] = Rate 500 g/ha, scale 0 (no effect) to 100 (complete control), 13 to 15 days

## COc1cc(N2CCC(n3ccc(C(C)C)n3)C2=O)ccc1Br (centres unmarked) [Compound 140]
Sunflower [1]
  Plant response rating, Sunflower: 30
[2]; [18]
  Plant response rating, Velvetleaf: 70
[2]; [19]
  Plant response rating, Velvetleaf: 60
[2]; preemergence
  Plant response rating (0 to 100), Velvetleaf: 90
[2]; [20]
  Plant response rating, Velvetleaf: 90
[3]; [19]
  Plant response rating, Ragweed, Common: 100
[3]; preemergence
  Plant response rating (0 to 100), Ragweed, Common: 100
[3]; [20]
  Plant response rating, Ragweed, Common: 100
[4]; [18]
  Plant response rating, Johnsongrass: 20
[4]; [19]
  Plant response rating, Johnsongrass: 0
[4]; preemergence
  Plant response rating (0 to 100), Johnsongrass: 100
[4]; [20]
  Plant response rating, Johnsongrass: 100
Nightshade; Rate 62 g/ha, scale 0 to 100
  Plant response rating, Nightshade: 100
Nightshade; [18]
  Plant response rating, Nightshade: 100
Nightshade; [21]
  Plant response rating, Nightshade: 100
[5]; [18]
  Plant response rating, Cupgrass, Woolly: 100
[5]; [19]
  Plant response rating, Cupgrass, Woolly: 100
[5]; preemergence
  Plant response rating (0 to 100), Cupgrass, Woolly: 100
[5]; [20]
  Plant response rating, Cupgrass, Woolly: 100
[6]; [18]
  Plant response rating, Pigweed: 100
[6]; [19]
  Plant response rating, Pigweed: 100
[6]; preemergence
  Plant response rating (0 to 100), Pigweed: 100
[6]; [20]
  Plant response rating, Pigweed: 100
[7]; [18]
  Plant response rating, Bermudagrass: 100
[7]; [19]
  Plant response rating, Bermudagrass: 100
[7]; preemergence
  Plant response rating (0 to 100 where 0 is no effect and 100 is complete control), Bermudagrass: 100
[7]; [20]
  Plant response rating, Bermudagrass: 100
[8]; [18]
  Plant response rating, Goosegrass: 100
[8]; [19]
  Plant response rating, Goosegrass: 100
[8]; preemergence
  Plant response rating (0 to 100), Goosegrass: 100
[8]; [20]
  Plant response rating, Goosegrass: 100
[9]; [18]
  Plant response rating, Nutsedge: 40
[9]; [19]
  Plant response rating, Nutsedge: 20
[9]; preemergence
  Plant response rating (0 to 100), Nutsedge: 70
[9]; [20]
  Plant response rating, Nutsedge: 60
Soybean (Glycine max); [18]
  Plant response rating, Soybean: 80
Soybean (Glycine max); [19]
  Plant response rating, Soybean: 50
Soybean (Glycine max); preemergence
  Plant response rating (0 to 100), Soybean: 100
Soybean (Glycine max); [20]
  Plant response rating, Soybean: 100
[10]; [18]
  Plant response rating, Cocklebur: 30
[10]; [19]
  Plant response rating, Cocklebur: 30
[10]; [20]
  Plant response rating, Cocklebur: 90
[11]; [18]
  Plant response rating, Foxtail, Giant: 100
[11]; [19]
  Plant response rating, Foxtail, Giant: 100
[11]; preemergence
  Plant response rating (0 to 100), Foxtail, Giant: 100
[11]; [20]
  Plant response rating, Foxtail, Giant: 100
[12]; [18]
  Plant response rating, Crabgrass: 100
[12]; [19]
  Plant response rating, Crabgrass: 100
[12]; preemergence
  Plant response rating (0 to 100), Crabgrass: 100
[12]; [20]
  Plant response rating, Crabgrass: 100
Sunflower [13]
  Plant response rating, Sunflower: 50
[14]; [18]
  Plant response rating, Lambsquarters: 100
[14]; [19]
  Plant response rating, Lambsquarters: 100
[14]; preemergence
  Plant response rating (0 to 100), Lambsquarters: 100
[14]; [20]
  Plant response rating, Lambsquarters: 100
[15]; [18]
  Plant response rating, Velvetleaf: 0
[15]; [22]
  Plant response rating, Velvetleaf: 60
[16]; [18]
  Plant response rating, Wheat: 0
[16]; [22]
  Plant response rating, Wheat: 0
[17]; [18]
  Plant response rating, Foxtail, Giant: 0
[17]; [22]
  Plant response rating, Foxtail, Giant: 70
Corn (Zea mays); [18]
  Plant response rating, Corn: 0
Corn (Zea mays); [22]
  Plant response rating, Corn: 0

## COc1cc(N2CCC(n3ccc(C(C)(C)C)n3)C2=O)ccc1Br (centres unmarked) [Compound 141]
Sunflower [1]
  Plant response rating, Sunflower: 30
[2]; [18]
  Plant response rating, Velvetleaf: 70
[2]; [19]
  Plant response rating, Velvetleaf: 70
[2]; preemergence
  Plant response rating (0 to 100), Velvetleaf: 100
[2]; [20]
  Plant response rating, Velvetleaf: 70
[3]; [18]
  Plant response rating, Ragweed, Common: 100
[3]; [19]
  Plant response rating, Ragweed, Common: 100
[3]; preemergence
  Plant response rating (0 to 100), Ragweed, Common: 100
[3]; [20]
  Plant response rating, Ragweed, Common: 100
[4]; [18]
  Plant response rating, Johnsongrass: 0
[4]; [19]
  Plant response rating, Johnsongrass: 0
[4]; preemergence
  Plant response rating (0 to 100), Johnsongrass: 100
[4]; [20]
  Plant response rating, Johnsongrass: 0
Nightshade; Rate 62 g/ha, scale 0 to 100
  Plant response rating, Nightshade: 100
Nightshade; [18]
  Plant response rating, Nightshade: 100
Nightshade; [21]
  Plant response rating, Nightshade: 100
[5]; [18]
  Plant response rating, Cupgrass, Woolly: 100
[5]; [19]
  Plant response rating, Cupgrass, Woolly: 100
[5]; preemergence
  Plant response rating (0 to 100), Cupgrass, Woolly: 100
[5]; [20]
  Plant response rating, Cupgrass, Woolly: 100
[6]; [18]
  Plant response rating, Pigweed: 100
[6]; [19]
  Plant response rating, Pigweed: 100
[6]; preemergence
  Plant response rating (0 to 100), Pigweed: 100
[6]; [20]
  Plant response rating, Pigweed: 100
[7]; [18]
  Plant response rating, Bermudagrass: 100
[7]; [19]
  Plant response rating, Bermudagrass: 100
[7]; preemergence
  Plant response rating (0 to 100 where 0 is no effect and 100 is complete control), Bermudagrass: 100
[7]; [20]
  Plant response rating, Bermudagrass: 100
[8]; [18]
  Plant response rating, Goosegrass: 100
[8]; [19]
  Plant response rating, Goosegrass: 100
[8]; preemergence
  Plant response rating (0 to 100), Goosegrass: 100
[8]; [20]
  Plant response rating, Goosegrass: 100
[9]; [18]
  Plant response rating, Nutsedge: 0
[9]; [19]
  Plant response rating, Nutsedge: 0
[9]; preemergence
  Plant response rating (0 to 100), Nutsedge: 50
[9]; [20]
  Plant response rating, Nutsedge: 0
Soybean (Glycine max); [18]
  Plant response rating, Soybean: 100
Soybean (Glycine max); [19]
  Plant response rating, Soybean: 70
Soybean (Glycine max); preemergence
  Plant response rating (0 to 100), Soybean: 100
Soybean (Glycine max); [20]
  Plant response rating, Soybean: 100
[10]; [18]
  Plant response rating, Cocklebur: 60
[10]; [19]
  Plant response rating, Cocklebur: 0
[10]; preemergence, Rate 500 g/ha, visual evaluation after 12 to 14 days
  Plant response rating (0 to 100), Cocklebur: 100
[10]; [20]
  Plant response rating, Cocklebur: 70
[11]; [18]
  Plant response rating, Foxtail, Giant: 100
[11]; [19]
  Plant response rating, Foxtail, Giant: 100
[11]; preemergence
  Plant response rating (0 to 100), Foxtail, Giant: 100
[11]; [20]
  Plant response rating, Foxtail, Giant: 100
[12]; [18]
  Plant response rating, Crabgrass: 100
[12]; [19]
  Plant response rating, Crabgrass: 100
[12]; preemergence
  Plant response rating (0 to 100), Crabgrass: 100
[12]; [20]
  Plant response rating, Crabgrass: 100
Sunflower [13]
  Plant response rating, Sunflower: 40
[14]; [18]
  Plant response rating, Lambsquarters: 100
[14]; [19]
  Plant response rating, Lambsquarters: 100
[14]; preemergence
  Plant response rating (0 to 100), Lambsquarters: 100
[14]; [20]
  Plant response rating, Lambsquarters: 100
[15]; [18]
  Plant response rating, Velvetleaf: 50
[15]; [22]
  Plant response rating, Velvetleaf: 70
[16]; [18]
  Plant response rating, Wheat: 0
[16]; [22]
  Plant response rating, Wheat: 0
[17]; [18]
  Plant response rating, Foxtail, Giant: 30
[17]; [22]
  Plant response rating, Foxtail, Giant: 50
Corn (Zea mays); [18]
  Plant response rating, Corn: 0
Corn (Zea mays); [22]
  Plant response rating, Corn: 0
